Series [1] deals with luciferase mRNA. The experiment in a line: Detection of reporter gene (luciferase mRNA) expression in mice in vivo. Also noted: species or system BALB/c female mice. To be noted: LNP-delivered luciferase mRNA, quadriceps muscle injection, IVIS 24 h after injection; dose (5 or 14 μg mRNA) not given. As to the method: The prepared LNP-encapsulated mRNA solution was diluted with PBS buffer to obtain the solution for injection. BALB/c female mice at about 20 g were injected with injection solution at the quadriceps muscle site of mice with an insulin syringe, and each mouse was injected with 50 μL. Two doses were designed: one dose of “5 μg mRNA per 50 μL of injection solution” and the other dose of “14 μg mRNA per 50 μL of injection solution”. BALB/c female mice at about 20 g are injected with PBS buffer at the quadriceps muscle site of mice with an insulin syringe, and each mouse was injected with 50 μL.
After the mice were injected for 24 h, in vivo expression of Luciferase was detected with Perkinelmer's IVIS. The substrate was D-luciferin Sodium salt (GOLDBIO, LUCNA-1G), which was formulated into a concentration of 15 mg/mL with normal saline, filtered and sterilized with a 0.22 μm filter membrane, and stored at −20° C. in aliquots protected from light. Before imaging, each mouse at about 20 g was intraperitoneally injected with 200 μL of substrate solution for 10-20 minutes, and then was anesthetized with isoflurane gas and placed prone on the imaging plate to detect the fluorescence of the animal in vivo, and the results are shown in Table 2.

Series [2] deals with SD rat. Put plainly: Liver injury toxicity analysis of lipid molecules in SD rat (serum ALT and AST). In kind it is in vivo. The settings on record: SD rats, 3 mg/kg mRNA encoding Luciferase via tail vein, serum 24 hours after injection; compared with SM102 (FIGS. 4A, 4B). The source says: In order to further investigate the hepatic injury toxicity of exemplary compounds, we analyze the effect of the compounds of the present invention on serum alanine aminotransferase (ALT) and […] (AST) levels. The experimental 30 SD rats (15 females+15 males, purchased from Zhejiang Weitong Lihua Laboratory Animal Technology Co., Ltd.) were randomly divided into three groups, namely negative control group (PBS), SM102 group, and compound 2 group, each group of […]. According to body weight, each rat was injected with 3 mg/kg of mRNA encoding Luciferase through the tail vein, fasted overnight with supplying water, and whole blood was collected 24 hours after injection, and serum was isolated. The concentration of ALT and AST in the serum of each rat was detected with a fully automated biochemical analyzer, and the test results are shown in FIGS. 4A and 4B.

Series [3] can be described thus: In vivo expression distribution analysis of delivered luciferase mRNA (RT-PCR in tissues). Also noted: species or system C57BL/6J mice. To be noted: delivered luciferase mRNA, single intramuscular injection 50 μg, 2 h-336 h, RT-PCR. As to the method: In order to investigate the distribution features of lipid-delivering mRNA in vivo, we analyzed the distribution features of the reporter luciferase mRNA of the compounds of the present invention in C57BL/6J mice after administration by a single intramuscular injection. The experimental 10 C57BL/6J mice were enrolled, male and female, each administered 50 μg, with SM102 as the control.
Animals in the negative control group were collected at 2 h and 336 h after administration, and animals in the test group were collected at 2 h, 6 h, 24 h, 48 h, 72 h, 120 h, 168 h, and 336 h after administration whole blood, bone marrow, liver, spleen, heart, kidney, inguinal lymph nodes, mesenteric lymph nodes, spleen, brain, stomach, small intestine, non-injection site muscle, injection site muscle tissue, etc. The RNA content in the samples at each time point was detected by RT-PCR, and the lower limit of quantification of the method was […] to reflect the distribution features in C57BL/6J mice.

The test system of series [4] is BALB/c female mice. Put plainly: Acute toxicity analysis of lipid molecules (cationic lipid LNP) in BALB/c female mice. The settings on record: blood 24 h after injection, Ave(SD).
A short description of series [5]: mRNA-LNP encapsulation: particle size, PDI and encapsulation rate of LNP. Format: physicochemical. As to the method: The mRNA stock solution was dispersed in 20 mM acetic acid solution (pH 5.0) to a final concentration of 200 μg/mL (aqueous phase). A fat mixture (oil phase) was obtained by mixing under a molar ratio of the exemplary compound:cholesterol:DSPC:DMG-PEG2000=50:38.5:10:1.5. The flow rate of the aqueous phase and the oil phase was controlled by T mixed flow, and the mRNA and lipid mixture were mixed under the volume ratio of 3:1 to obtain LNP-encapsulated mRNA. The encapsulated LNP was diluted 10-fold with buffer, then concentrated by ultrafiltration, and the dilute was displaced, and finally the LNP was concentrated to mRNA being 200 µg/mL, and the pH of the LNP was adjusted to about 7-8. Finally, the Ribogreen kit and 10% OTG were used as demulsifiers to detect the total content of mRNA and the content of […], and the encapsulation rate of LNP was calculated. The LNP final product was diluted 10-fold with diluent, added 1 mL into a particle size cell, and placed on the Malvern ZetaSizer instrument to detect the particle size and PDI of LNP.

The mark [6] stands for this setting: LNP of compound:cholesterol:DSPC:DMG-PEG2000=50:38.5:10:1.5 with mRNA, Malvern ZetaSizer.

In series [1], `CCCCCCCCCCCOC(=O)CCCCCN(CCCCCCO)CCCCCCCC(=O)OC(CCCCCCCC)CCCCCCCC` [Example 2] registered an Average fluorescence intensity of 1.144E+06 P/s/cm^2/sr. Also, the “Elevation effect on serum ALT and AST” value in series [2] is reported as “significantly lower than these of compound SM102”. Moreover, the “Exposure in tissues and organs, from high to low” value in series [3] was “injection site muscle, inguinal lymph nodes, whole blood, spleen, non-injection site muscle, bone marrow, heart, liver, mesenteric lymph nodes, kidney, small intestine and brain”. Also, in series [4] (high dose group, 150 μg LNP/pc), the Alanine aminotransferase is reported as 41.54 U/L, the “Alkaline phosphatase (ALP)” value came to 111.86 U/L, the Aspartate aminotransferase stood at 124.48 U/L and the Creatinine turned out to be 12.6 µmol/L. In series [4] (high dose group, 150 μg LNP/pc), the “Total bilirubin (TBIL)” value amounted to 1.25 and the “γ-Glutamyltransferase (GGT)” value is listed as 0.20 (0.18) U/L. Besides, in series [4] (low dose group, 50 μg/pc), the Alanine aminotransferase is on record as 35.32 (2.51) U/L, the “Alkaline phosphatase (ALP)” value turned out to be 113.3 U/L, the Aspartate aminotransferase came to 111.74 U/L and the Creatinine stood at 12.6 µmol/L. Further, in series [4] (low dose group, 50 μg/pc), the “Total bilirubin (TBIL)” value was 1.22 (0.20) and the “γ-Glutamyltransferase (GGT)” value is reported as 0.40 (0.37) U/L.

Consider `CCCCCCCCCCCOC(=O)CCCCCN(CCO)CCCCCCCC(=O)OC(CCCCCCCC)CCCCCCCC` [SM102, reference compound], for which, in series [5] (setting [6]), the PDI turned out to be 0.1296 and the “Particle size (nm)” value was 92.16 nm. Moreover, the Encapsulation rate in series [5] (LNP-encapsulated mRNA, Ribogreen kit) is reported as 95%. For the same molecule, the Average fluorescence intensity in series [1] stood at 1.112E+06 P/s/cm^2/sr. In addition, the “Exposure in tissues and organs, from high to low” value in series [3] is “inguinal lymph nodes, injection site muscles, whole blood, non-injection site muscles, spleen, bone marrow, heart, mesenteric lymph nodes, liver, kidney, small intestine, and brain”. Besides, in series [4] (high dose group, 150 μg LNP/pc), the Alanine aminotransferase amounted to 56.18 U/L, the “Alkaline phosphatase (ALP)” value is given as 116.88 U/L, the Aspartate aminotransferase is listed as 145.96 U/L and the Creatinine was 12.6 µmol/L. Besides, the “γ-Glutamyltransferase (GGT)” value in series [4] (high dose group, 150 μg LNP/pc) is given as 0.32 (0.22) U/L. Also, in series [4] (low dose group, 50 μg/pc), the Alanine aminotransferase is reported as 36.04 (2.93) U/L, the “Alkaline phosphatase (ALP)” value stood at 131.7 U/L, the Aspartate aminotransferase is listed as 121.4 U/L and the Creatinine turned out to be 14.6 µmol/L. Also, the “γ-Glutamyltransferase (GGT)” value in series [4] (low dose group, 50 μg/pc) is given as 0.41 (0.24) U/L.

For the origin of these results see patent US12312292B2, “Long chain alkyl esteramine lipid compound, preparation method therefor and application thereof in nucleic acid delivery” (RinuaGene Biotechnology Co., Ltd., priority 2022, dated 2025).
